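Dose response: 5 concentrations. Exposure: 48 h. Format: 96-well plates. Endpoint: linear interpolation; highest concentration if not reached. GI50 marks 50% less growth.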 Calls of active or inactive are those of the source. Rule as the data show it: active = GI50 up to about 1.1 µM and inactive = higher.

Some test systems named below: ACHN; IGROV-1; K562; SNB-75; UO-31; HL-60; A498; UACC-62; COLO 205; NCI-H226; KM12; OVCAR-3; RPMI-8226; TK-10; HCT-15; HOP-92; SR.
Common to all, as to test: inhibition of tumour cell growth, NCI panel, 48 h

`O=C(O)[C@@H](NS(=O)(=O)c1ccc([N+](=O)[O-])cc1)c1ccccc1`: the GI50 with ACHN, in the experiment with IGROV-1, in the experiment with K562, in the experiment with SNB-75, in the experiment on UO-31 and in the experiment with HL-60 was > 100 µM (inactive) throughout. In addition, the GI50 in the experiment on A498, with UACC-62, in the experiment on COLO 205, in the experiment on NCI-H226, with KM12 and in the experiment with OVCAR-3 was > 100 µM (inactive) throughout. Also, the GI50 with RPMI-8226 was > 100 µM (inactive); in the experiment on TK-10, > 100 µM (inactive); with HCT-15 it was over 100 µM; in the experiment on HOP-92 it was > 100 µM (inactive).
Regarding `O=C(C(=O)c1ccc(Cc2ccc(C(=O)C(=O)c3ccccc3)cc2)cc1)c1ccccc1`, the GI50 with ACHN, with IGROV-1, in the experiment with K562, in the experiment with SNB-75, in the experiment with UO-31 and in the experiment with HL-60 was > 100 µM (inactive) throughout. Further, the GI50 in the experiment on A498, with UACC-62, in the experiment on COLO 205, with NCI-H226, in the experiment on KM12 and in the experiment with OVCAR-3 was > 100 µM (inactive) throughout. Further, the GI50 with TK-10 was > 100 µM (inactive); with HCT-15, over 100 µM; in the experiment with HOP-92, > 100 µM (inactive).
Regarding `Cc1nc(Nc2ccccc2)sc1C(=O)NNc1ccc([N+](=O)[O-])cc1[N+](=O)[O-]`, the GI50 in the experiment on ACHN is 14.2 µM (inactive); with IGROV-1, 45.9 µM (inactive); in the experiment on K562, 12 µM (inactive); with SNB-75, 22.7 µM (inactive); with UO-31 it was 24 µM (inactive); in the experiment with SR, 14.7 µM (inactive). In addition, the GI50 in the experiment with HL-60 is 13.9 µM (inactive); in the experiment with UACC-62, 5.94 µM (inactive); with COLO 205, 30.3 µM (inactive); in the experiment with NCI-H226, 85.5 µM (inactive); in the experiment on KM12, 34.4 µM (inactive); in the experiment with OVCAR-3, 34.4 µM (inactive). Also, the GI50 in the experiment on TK-10 is 52.5 µM (inactive); with HCT-15, 26.2 µM.
Regarding `O=C1Nc2ccccc2C12CCCC2`, the GI50 was > 100 µM (inactive) in the experiment on ACHN; > 100 µM (inactive) in the experiment on IGROV-1; > 100 µM (inactive) in the experiment on K562; 54.6 µM (inactive) in the experiment on SNB-75; > 100 µM (inactive) in the experiment on UO-31; > 100 µM (inactive) in the experiment on HL-60. Besides, the GI50 with A498, with UACC-62, with COLO 205, in the experiment with KM12, in the experiment on OVCAR-3 and with RPMI-8226 was > 100 µM (inactive) each time. Besides, the results for the GI50 with TK-10 and in the experiment on HCT-15 were > 100 µM (inactive) and over 100 µM, respectively.
Take `CC1=C(C(=O)Nc2ccccc2C)C(/C=C/c2ccccc2)C(C(=O)Nc2ccccc2C)=C(C)N1`: the GI50 in the experiment on ACHN is > 100 µM (inactive); with IGROV-1, > 100 µM (inactive); with K562, > 100 µM (inactive); with SNB-75, 33.5 µM (inactive); with UO-31 it was 34.8 µM (inactive); in the experiment with HL-60, 72.3 µM (inactive). The GI50 in the experiment on A498 was 37.8 µM (inactive); in the experiment with UACC-62, > 100 µM (inactive); in the experiment on COLO 205, > 100 µM (inactive); with NCI-H226, > 100 µM (inactive); in the experiment on KM12, > 100 µM (inactive); with OVCAR-3 it was > 100 µM (inactive). Besides, the GI50 is > 100 µM (inactive) in the experiment with TK-10, over 100 µM in the experiment with HCT-15 and 80 µM (inactive) in the experiment on HOP-92.
Take `Nc1nc(CCC(=O)Nc2cccc(C(F)(F)F)c2)cc(-c2cccc3ccccc23)n1`: the GI50 in the experiment on ACHN, in the experiment with IGROV-1, in the experiment with K562, in the experiment on SNB-75, in the experiment on UO-31 and with SR was > 100 µM (inactive) in each case. In addition, the GI50 in the experiment on HL-60, in the experiment on A498, in the experiment with UACC-62, in the experiment on COLO 205, in the experiment on NCI-H226 and with KM12 was > 100 µM (inactive) each time. For the same molecule, the GI50 in the experiment with OVCAR-3 is > 100 µM (inactive); in the experiment with TK-10, > 100 µM (inactive); in the experiment on HCT-15 it was over 100 µM.
Turning to `COc1c(C)c2c(c(C)c1Cl)Oc1c(C=O)c(O)c(Cl)c(C)c1C(=O)O2`, the GI50 in the experiment on ACHN is 22.4 µM (inactive); in the experiment on IGROV-1, 31.6 µM (inactive); in the experiment on K562, 26.8 µM (inactive); in the experiment on SNB-75 it was 23.4 µM (inactive); in the experiment with SR, 27.5 µM (inactive); in the experiment on HL-60, 22.3 µM (inactive). Also, the GI50 in the experiment on A498 is 24.2 µM (inactive); in the experiment on UACC-62, 21.6 µM (inactive); with COLO 205, 22.8 µM (inactive); with NCI-H226 it was 28.7 µM (inactive); in the experiment with KM12, 31.8 µM (inactive); in the experiment with OVCAR-3, 11.7 µM (inactive). The GI50 is 32.6 µM (inactive) in the experiment with RPMI-8226 and 31.8 µM (inactive) in the experiment with TK-10.
As to `CN1CCN2c3ccccc3CC(C#N)(C#N)C2C1` (stereo unspecified), the GI50 with ACHN, in the experiment on IGROV-1, in the experiment with K562, in the experiment on SNB-75, in the experiment with UO-31 and in the experiment with HL-60 was > 100 µM (inactive) throughout. Besides, the GI50 with A498, with UACC-62, with COLO 205, in the experiment on NCI-H226, with KM12 and with OVCAR-3 was > 100 µM (inactive) throughout. Further, the GI50 was > 100 µM (inactive) in the experiment with RPMI-8226, > 100 µM (inactive) in the experiment on TK-10, over 100 µM with HCT-15 and > 100 µM (inactive) in the experiment on HOP-92.
On to `Cc1cc([N+](=O)[O-])c(C)c2c1[nH]c1ccc(/C(CCC3CCCC3)=N\N)cc12`, for which the GI50 with ACHN was 15.5 µM (inactive); in the experiment on K562, 10.3 µM (inactive); with SNB-75 it was 22 µM (inactive); in the experiment on UO-31 it was 15.3 µM (inactive); with SR it was 19.6 µM (inactive); with HL-60, > 10 µM (inactive). Also, the GI50 was 17.5 µM (inactive) in the experiment with COLO 205; 20.8 µM (inactive) with NCI-H226; 16 µM (inactive) with KM12; 20 µM (inactive) with OVCAR-3; 20.3 µM (inactive) with RPMI-8226; 14.2 µM (inactive) in the experiment with TK-10. The GI50 in the experiment with HCT-15 is 14.2 µM.
Consider `CCOC(=O)C1S/C(=N\c2ccc(OC)c(OC)c2)N=C1C` (stereo unspecified), for which the GI50 was 33.6 µM (inactive) in the experiment with ACHN; 56.6 µM (inactive) in the experiment on IGROV-1; 36.6 µM (inactive) in the experiment with K562; 24.5 µM (inactive) in the experiment on SNB-75; 34.6 µM (inactive) in the experiment with UO-31; 19.2 µM (inactive) in the experiment with HL-60. In addition, the GI50 was 52.7 µM (inactive) in the experiment with A498; 26.3 µM (inactive) with UACC-62; 69.3 µM (inactive) with COLO 205; 64.1 µM (inactive) in the experiment with NCI-H226; 31.3 µM (inactive) with KM12; 29.5 µM (inactive) in the experiment on OVCAR-3. Besides, the values for the GI50 with TK-10, in the experiment on HCT-15 and in the experiment with HOP-92 were 75.9 µM (inactive), 28.6 µM and 37.2 µM (inactive), respectively.
With `O=C(O)/C(=C/c1ccccc1[N+](=O)[O-])c1cccs1`, the GI50 in the experiment on ACHN, with IGROV-1, in the experiment with K562, in the experiment with SNB-75, in the experiment with UO-31 and in the experiment on SR was > 100 µM (inactive) throughout. Besides, the GI50 in the experiment on HL-60, in the experiment with A498, in the experiment on UACC-62, in the experiment with COLO 205, in the experiment on NCI-H226 and in the experiment on KM12 was > 100 µM (inactive) in each case. In addition, the GI50 is > 100 µM (inactive) in the experiment on OVCAR-3, > 100 µM (inactive) in the experiment with RPMI-8226, > 100 µM (inactive) in the experiment with TK-10 and over 100 µM with HCT-15.
Take `O=C1/C=C(/c2ccc(O)cc2)[C@@H](OC2OC(CO)C(O)C(O)C2O)Cc2ccc(O)cc2O1.O=C1/C=C(/c2ccc(O)cc2)[C@H](O)Cc2ccc(O[C@@H]3OC(CO)C(O)C(O)C3O)cc2O1` (stereo partly specified): the GI50 was > 100 µM (inactive) in the experiment on ACHN; > 100 µM (inactive) in the experiment with IGROV-1; > 100 µM (inactive) in the experiment on UO-31; 1 µM (active) in the experiment on SR; 4.91 µM (inactive) in the experiment with HL-60; > 100 µM (inactive) in the experiment with A498. Besides, the GI50 in the experiment on UACC-62 was > 100 µM (inactive); in the experiment with COLO 205, > 100 µM (inactive); in the experiment with NCI-H226, > 100 µM (inactive); with KM12, > 100 µM (inactive); in the experiment on OVCAR-3 it was > 100 µM (inactive); with RPMI-8226, 25.2 µM (inactive). In addition, the GI50 in the experiment with TK-10 was > 100 µM (inactive); with HCT-15 it was over 100 µM.
For the molecule `C=C1C(=O)O[C@H](c2ccoc2)C[C@@H]1[C@@]1(C)CCCC2(C)C(=O)OCC21` (stereo partly specified), the GI50 with ACHN, in the experiment with IGROV-1, in the experiment with K562, in the experiment on SNB-75, in the experiment on UO-31 and in the experiment with A498 was > 100 µM (inactive) throughout. Also, the GI50 in the experiment on UACC-62, in the experiment on COLO 205, in the experiment on NCI-H226, in the experiment with KM12, with OVCAR-3 and in the experiment on RPMI-8226 was > 100 µM (inactive) throughout. For the same molecule, the GI50 was > 100 µM (inactive) with TK-10 and over 100 µM in the experiment on HCT-15.
